From PMC11601558, “SLC6A19 inhibition facilitates urinary neutral amino acid excretion and lowers plasma phenylalanine” (JCI Insight, 2024) come the findings set out here.

This experiment relates to Pah^enu2 mice. Description: Plasma Phe in Pah^enu2 mice after JN-170. It counts as in vivo, mouse. The protocol:
Male homozygous BTBR-Pah<enu2>/J (Pah^enu2) aged 10–13 weeks were purchased from Jackson Laboratory (no. 002232). Immediately before dosing, each animal’s bladder was manually emptied and a plasma sample was drawn. Animals were dosed by oral gavage with vehicle (10% DMSO, 20% 2-hydroxypropyl-β-cyclodextrin [Sigma-Aldrich]) followed by a 1-week washout prior to dosing with JN-170 at doses ranging from 50 to 250 mg/kg. Following dosing with vehicle or JN-170, animals were individually placed in metabolic cages to collect urine samples. After collection of each urine sample, cages were rinsed with ultra-pure water to recover residual analytes. Blood samples were collected predose as well as 1, 3, 8, 12, and 24 hours after dosing with vehicle or JN-170 into tubes with EDTA as a […], and plasma was separated by centrifuging samples at 2,200g for 5 minutes at 4°C. Throughout the study, mice had access to food and water ad libitum. Plasma and urine samples were stored at –80°C until processing.Ten-week-old male WT C57Bl/6J animals (Si Bei Fu Laboratory Animal Technology Co. Ltd.) were dosed either with vehicle or 50–250 mg/kg JN-170 by oral gavage and blood and urine samples were collected as described. All animals had unrestricted access to food and water during the study; C57Bl/6J were kept on rodent maintenance diet from Beijing Keao Xieli, Pah^enu2 mice were kept on Teklad diet no. T.2018.
Plasma sample analyses were carried out by liquid chromatography tandem mass spectrometry (LC-MS/MS). Plasma samples were mixed 1:1 with carbamazepine or ^13C6-Phe as internal standards for JN-170 and Phe, respectively. Plasma proteins were precipitated by adding 4 volumes of acetonitrile (ACN) and 0.1% formic acid (FA) followed by centrifugation for 5 minutes at 2,100g. Supernatants were diluted 1:1 in ACN and 0.1% FA. For JN-170, a Waters HSS T3 reversed phase column was used for separation using a binary gradient of 0.1% FA in water (mobile phase A) to 0.1% in ACN (mobile phase B). At a flow rate of 0.8 mL/min, the mobile phase gradient increased from an initial 25% phase B to 95% phase B over 30 seconds. After, 1.5 minutes, the gradient was returned to 25% mobile phase B. For detection of Phe, an Acquity UPLC ethylene bridged hybrid (BEH) amide column was used, with a binary gradient of 10 mM ammonium acetate in 95:5:1 H2O:ACN:FA (mobile phase A) to 10 mM ammonium acetate in 95:5:1 ACN:H2O:FA (mobile phase B). At a flow rate of 0.5 mL/min, the mobile phase gradient changed from an initial 100% phase B to 50% phase B over 2.1 minutes. It was returned to 100% phase B after 4 minutes. Analytes were detected using a Sciex API-5500 in multiple reaction monitoring mode using an electrospray ionization source in the positive ion mode with the following ion transitions: m/z 435.2/84.1 (JN-170), 237.1/194.1 (carbamazepine), 166.1/120.1 (Phe), 172.2/126.2 for (^13C6-Phe). Analyte concentrations were calculated with a 1/×^2 linear regression over a concentration range of 1 or 2 to 5,000 ng/mL for JN-170 and 0.05–100 ng/mL for Phe.
IC50 values for transport inhibition in cells overexpressing SLC6A19 and TMEM27 were calculated using a 4-parameter logistic regression in Collaborative Drug Discovery (CDD). Reported IC50 values are geometric means of 4–6 independent experiments. For postmortem intestinal transport assays, single outliers of quadruplicate replicates were excluded from the calculation if a signal value’s distance to the mean exceeded 35% of the signal average. The IC50 values of individual experiments were calculated with a 3- or 4-parameter logistic regression using GraphPad Prism 9. The reported IC50 value represents the geometric mean of n = 5 experiments from 3 individual donors. Statistical comparison of urinary Phe excretion in Pah^enu2 mice treated with vehicle or JN-170 was conducted using 1-way analysis of variance (ANOVA) with Tukey’s post hoc comparison. […]

Molecules are shown by their SMILES.

Consider `N#Cc1ccc(-c2noc([C@]3(C(F)(F)F)CCN(C(=O)NCCC4(N)CC4)C3)n2)cc1` [JN-170], for which the “plasma Phe, mean ± SD” value by setting is: (50 mg/kg, 3 hours) 984 ± 135 µM; (50 mg/kg, 12 hours) 1,119 ± 124 μM; (250 mg/kg, 3 hours) 764 ± 43 µM; (250 mg/kg, 12 hours) 648 ± 106 µM. The “plasma Phe lower than predose baseline” value (50 mg/kg, 3 hours after dosing) came to 45%. Further, the “plasma Phe decrease from baseline” value (50 mg/kg, 12 hours) came out at 34%. In addition, the “reduction in plasma Phe vs predose” value (250 mg/kg, 3 hours) was determined as 54% and the “reduction in plasma Phe vs predose” value (250 mg/kg, 12 hours) amounted to 61%. Besides, for the setting “plasma exposures with target coverage above the IC75”, the “lowering of plasma Phe” value is above 40%.
